Measurements as given in patent US6391549B1, “Monitoring gene expression” (Ramont University Authority for Applied Research & …, priority 1999, dated 2002).

Columns and labels:
β-galactosidase = β-galactosidase (Escherichia coli, UniProt P00722); conditions: purified enzyme, PAPG substrate, 220 mV
Protocol: The amperometric assay. Electrochemical measurements were performed using a disposable three-electrode cell, based on a screen-printed electrode (total volume of 0.3 ml). […] Graphite ink was used as the counter electrode and Ag/AgCl ink were the reference electrodes. Disposable graphite electrodes in cylindrical form (made from pencil leads, HB 0.9 mm) were used as the working electrodes. The assay was performed directly in the electrochemical cells which were vibrated to achieve mixing. The same screen-printed electrodes and graphite working electrode were also used for direct measurements in cultures. In this case the electrodes were placed inside the Erlenmeyer flask as shown in FIG. 1 and mixing was achieved by bubbling air. The graphite electrode was held at 220 mV versus the reference electrode and the substrate PAPG concentration was 0.4 mg/ml.
The electrochemical measurements were performed using a PAR VersaStat potentiostat connected to 8 channel PAR 314 Model multiplexer (EG&C Princeton Applied Research, Princeton, N.J.). This system allows simultaneous measurements of eight samples with disposable electrochemical cells. The measurements were controlled by a LAbVIEW-based software using a Windows 95 operating system. […]

[1] = tested on: heavy metal responsive promoter-lacZ fusion in E coli K12 MC4100; experiment: on-line amperometric monitoring of heavy metals with bacteria carrying heavy metal responsive promoter fused to lacZ; type: cell-based; conditions: CdCl2 5, 10 and 50 PPM added to culture, FIG. 5
Protocol: An on-line electroanlytical assays for β-galactosidase was used to monitor on-line the presence of heavy metals. The expression of the reporter gene β-galactosidase that was fused to a heavy metal responsive gene was proportional to the heavy metal concentration. We were able to monitor eight different samples simultaneously using a disposable electrodes.
(§1) The on-line monitoring procedure was performed as followed:
a. The bacteria culture was grown on LB medium to a density of 40 K.U.
b. The culture was added to the multiple-cell device followed by the addition of the β-galactosidase substrate p-aminophenyl-b-D-galactopyranoside (PAPG).
c. A potential of 220 mV Vs Ag/AgCl reference electrode was applied by the electrochemical measurement system and electroanalytical assay for β-galactosidase was carried out as described in Example 4.
The current signal was monitored simultaneously in all the cultures.

[2] = tested on: heavy metal responsive promoter-lacZ fusion in E coli K12 MC4100; experiment: on-line monitoring of cadmium in soil samples with the reporter bacteria; type: cell-based
Protocol: as §1
The same assay procedure was used to detect cadmium in soil samples. The soil was added directly to the screen-printed based electrochemical cells containing the bacteria culture as described above. Eight soil samples were monitored simultaneously by the system. The results as visualized on the computer screen are shown on FIG. 6A., Two duplicates of soil sample containing 3.8 PPM cadmium (measured by the Atomic absorption method) were compared with two duplicates of clean soil samples.

[3] = tested on: E. coli K10 cultures (lacZ expression); experiment: on-line amperometric monitoring of lacZ product β-galactosidase in intact bacteria after IPTG induction; type: cell-based
Protocol: Bacterial strains and growth. E. coli K-12 strain K10 (Hfr, tonA22, ompF626, relA1, pit10, spoT1, T2^R CGSC [Coli Genetic Stot Center, New Haven, Conn.] 4234) was from the lab collection, Strains E. coli RO151 (MC4100 φ(csi-5::lacZ) and E. coli RH99 (RO151 rpoS359::Tn10) were described before (Weichart et. al., 1993). All cultures were grown aerobically at 37° C. with vigorous shaking in LB media (Miler, 1992), supplemented, when required, with 5 μg/ml of tetracycline or 25 μg/ml of kanamycin.
An on-line electroanalytical assay for β-galactosidase was used where the enzymatic activity was determined following induction with IPTG. Increasing concentrations of the inducer were added to cultures of E. coli K10 (Annette & Anthony, 1987) and the current signal was monitored on-line in all the cultures simultaneously (FIG. 3A).

[4] = tested on: E. coil k-12 7118 carrying pUC-PhoA plasmid (lacZ promoter-phoA); experiment: on-line amperometric monitoring of phoA product alkaline phosphatase under lacZ promoter in intact bacteria; type: cell-based, E. coli; conditions: IPTG 0, 0.1 mM and 1 mM, FIG. 10
Source text: The expression of the enzyme AP was done by constructing a multicopy plasmid. For the construction of the plasmid, we coupled a promoter-less phoA gene to the promoter of the lacZ gene. The use of multicopy plasmid as a vector for induciable genes requires a strong repressing system to prevent constitutive expression. Therefore we used a plasmid that cares the lacI^q gene coding for a lacZ strong repressor. The plasmid was designed to generate the correct fusion between the lacZ promoter and the phoA gene. The bacteria carrying this plasmid can be immobilized and used to monitor AP by electrochemical measurements of it's activity. After the construction of the plasmid, we measured AP activity of a cell suspension in response to the appearance of IPTG.
Strain E. coil k-12 7118[F′ lacI^qΔ(lacZ)M15 proA+B+/Δ(lac-proAB) thi supE]was used for all cloning procedures, plasmid propagation and production. AP production of cells carrying the pUC-PhoA plasmid was measured on-line by the electroanalytical technique that was used for β-galactosidase as described in example 2. As shown in FIG. 10 the enzymatic activity was determined following induction with elevated concentrations of IPTG (0, 1 mM and 0.1 mM).

[5] = tested on: heavy metal responsive promoter-lacZ fusion in E coli K12 MC4100; conditions: HgCl2 10, 50, 100 and 500 PPM added to sea-water, FIG. 7
Protocol: Electrochemical measurements was performed using a disposable three-electrode cell made of polystyrene tubes and based on a screen-printed electrode (total volume of 0.3 ml). The assay was performed directly in the electrochemical cells that was vibrated to achieve mixing. This system allows simultaneous measurements of eight samples using a potentiostat connected to 8 channel multiplexer. The electrical current, resulting in all 8 cultures, from the activity of β-galactosidase, was visualized in real time on the computer screen. The on-line monitoring procedure was performed as followed:
The game procedure as described on Example 4 was used to monitor mercury in water and sea water samples.

Sequence of β-galactosidase (P00722 2-1024 limits assumed): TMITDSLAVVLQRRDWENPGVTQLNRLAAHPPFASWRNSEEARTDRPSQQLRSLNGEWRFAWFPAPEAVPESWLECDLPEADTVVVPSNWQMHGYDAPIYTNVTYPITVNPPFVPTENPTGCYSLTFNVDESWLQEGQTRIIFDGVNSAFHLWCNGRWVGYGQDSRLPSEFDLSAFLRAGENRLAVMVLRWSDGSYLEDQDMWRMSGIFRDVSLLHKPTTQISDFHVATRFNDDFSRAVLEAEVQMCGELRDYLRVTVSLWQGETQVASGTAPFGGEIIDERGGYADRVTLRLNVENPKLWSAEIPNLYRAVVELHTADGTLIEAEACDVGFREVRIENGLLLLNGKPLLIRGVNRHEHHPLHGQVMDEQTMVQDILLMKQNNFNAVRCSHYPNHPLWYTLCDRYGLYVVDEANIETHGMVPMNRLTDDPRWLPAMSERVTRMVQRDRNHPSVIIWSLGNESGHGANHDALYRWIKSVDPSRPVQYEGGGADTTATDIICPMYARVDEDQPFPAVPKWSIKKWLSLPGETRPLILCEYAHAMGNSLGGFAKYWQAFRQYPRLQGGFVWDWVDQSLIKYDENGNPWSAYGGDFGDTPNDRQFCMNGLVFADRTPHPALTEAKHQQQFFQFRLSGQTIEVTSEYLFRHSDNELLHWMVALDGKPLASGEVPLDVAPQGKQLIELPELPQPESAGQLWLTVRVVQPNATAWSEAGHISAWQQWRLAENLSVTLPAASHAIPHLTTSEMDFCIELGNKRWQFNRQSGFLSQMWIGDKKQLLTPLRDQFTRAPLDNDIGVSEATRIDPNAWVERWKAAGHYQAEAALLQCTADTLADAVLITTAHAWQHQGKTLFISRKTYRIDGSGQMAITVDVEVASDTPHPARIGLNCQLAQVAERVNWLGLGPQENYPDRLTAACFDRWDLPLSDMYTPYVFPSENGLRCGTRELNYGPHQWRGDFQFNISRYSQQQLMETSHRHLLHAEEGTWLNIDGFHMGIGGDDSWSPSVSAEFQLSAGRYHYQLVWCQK

β-D-galactoside galatohydrolase; EC 3.2.1.23 [β-galactosidase]
detection limit (β-galactosidase): 1 unit/ml

[Cl][Cd][Cl] [cadmium, CdCl2]
slope of the current signals with time (reporter induction) [1]: proportional to the concentrations of cadmium added | current signals versus clean soil samples ([2]; soil sample containing 3.8 PPM cadmium, FIG. 6): substantially higher | lowest cadmium concentration detected in soil samples ([2]; soil samples, average of several experiments, FIG. 6B): 0.5 PPM

CC(C)S[C@@H]1O[C@H](CO)[C@H](O)[C@H](O)[C@H]1O [IPTG, isopropyl-β-D-thiogalactopyranoside]
lowest IPTG concentration from which the slope was proportional ([3]; E. coli K10, FIG. 3B): ≥ 0.5 µM | slope of the current signals with time (β-galactosidase induction) ([3]; E. coli K10, IPTG 0.5-50 μM, FIG. 3B): proportional to the concentrations of IPTG added | current signals (alkaline phosphatase activity after induction) [4]: proportional to IPTG concentations

HgCl2
current signal (reporter induction) [5]: proportional to the mercury concentrations
